# Data from PMC8617976, “Inhibitory Potential of New Phenolic Hydrazide-Hydrazones with a Decoy Substrate Fragment towards Laccase from a Phytopathogenic Fungus: SAR and Molecular Docking Studies” (International Journal of Molecular Sciences, 2021).
# Assays:
# [1] = target: T1, laccase from Trametes versicolor; assay: syringaldazine oxidation at […] nm, Lineweaver-Burk; assay type: biochemical; details: McIlvaine buffer pH 5.3, 25 °C, 30 min preincubation, methanol co-solvent
# T1 construct: gene LCC2; PDB 1GYC (laccase 2) used for docking only
# [2] = target: T1, laccase from Trametes versicolor; assay: syringaldazine oxidation at […] nm, Lineweaver-Burk; assay type: biochemical; details: McIlvaine buffer pH 5.3, 25 °C, 30 min preincubation, methanol co-solvent, printed as not active up to 1000 µM, type not determined
# [3] = mixed type, non-competitive component
structure (smiles),measurement,setting,value
"CC(C)(C)c1cccc(/C=N/NC(=O)c2ccccc2O)c1O [4j, 2-Hydroxy-N’-[(E)-(3-tert-butyl-2-hydroxyphenyl)methylidene]benzohydrazide]",Ki,[1]; uncompetitive,65.6 µM
"CC(C)(C)c1cccc(/C=N/NC(=O)c2cccc(O)c2)c1O [4k, 3-Hydroxy-N’-[(E)-(3-tert-butyl-2-hydroxyphenyl)methylidene]benzohydrazide]",Ki,[1]; competitive,35.8 µM
"Cc1cc(/C=N/NC(=O)c2ccc3ccccc3c2O)c(O)c(C(C)(C)C)c1 [5a, N’-[(E)-(3-tert-butyl-2-hydroxy-5-methylphenyl)methylidene]-2-(1-hydroxynaphtho)hydrazide]",Ki,[1]; [3],8 µM
"CC(C)(C)c1cc(/C=N/NC(=O)c2ccccc2O)c(O)c(C(C)(C)C)c1 [4g, 2-Hydroxy-N’-[(E)-(3,5-di-tert-butyl-2-hydroxyphenyl)methylidene]benzohydrazide]",Ki,[1]; non-competitive,52.6 µM
"O=C(N/N=C/c1cccc(-c2ccccc2)c1O)c1ccc2ccccc2c1O [5b, N’-[(E)-(2-hydroxy-3-phenylphenyl)methylidene]-2-(1-hydroxynaphtho)hydrazide]",Ki,[1]; [3],24.3 µM
"CC(=O)NN=Cc1cc(C)cc(C(C)(C)C)c1O (mixture of isomers) [3a, (E/Z)-N’-(3-tert-butyl-2-hydroxy-5-methyl-benzylidene)acetohydrazide]",KI,[2],> 1000 µM
"Cc1cc(/C=N/NC(=O)c2ccccc2)c(O)c(C(C)(C)C)c1 [4b, N’-[(E)-(3-tert-butyl-2-hydroxy-5-methylphenyl)methylidene]benzohydrazide]",Ki,[1]; competitive,82 µM
"O=C(N/N=C/c1cccc(-c2ccccc2)c1O)c1cc(O)cc(O)c1 [4o, 3,5-Dihydroxy-N’-[(E)-(2-hydroxy-3-phenyl-phenyl)methylidene]benzohydrazide]",Ki,[1]; non-competitive,69.9 µM
"Cc1cc(/C=N/NC(=O)c2cc(O)cc(O)c2)c(O)c(C(C)(C)C)c1 [4f, 3,5-Dihydroxy-N’-[(E)-(3-tert-butyl-2-hydroxy-5-methylphenyl)methylidene]benzohydrazide]",Ki,[1]; competitive,32.3 µM
"CC(C)(C)c1cccc(/C=N/NC(=O)c2cc(O)cc(O)c2)c1O [4l, 3,5-Dihydroxy-N’-[(E)-(3-tert-butyl-2-hydroxyphenyl)methylidene]benzohydrazide]",Ki,[1]; competitive,38 µM
"CC(C)(C)c1cccc(/C=N/NC(=O)c2ccc3ccccc3c2O)c1O [5d, N’-[(E)-(3-tert-butyl-2-hydroxy-phenyl)methylidene]-2-(1-hydroxynaphtho)hydrazide]",Ki,[1]; [3],55.6 µM
"CC(C)(C)c1cc(/C=N/NC(=O)c2ccc3ccccc3c2O)c(O)c(C(C)(C)C)c1 [5c, N’-[(E)-(3,5-di-tert-butyl-2-hydroxy-phenyl)methylidene]-2-(1-hydroxynaphtho)hydrazide monomethanolate]",Ki,[1]; non-competitive,16.2 µM
"O=C(N/N=C/c1cccc(-c2ccccc2)c1O)c1ccccc1O [4m, 2-Hydroxy-N’-[(E)-(2-hydroxy-3-phenyl-phenyl)methylidene]benzohydrazide]",Ki,"[1]; mixed type, competitive component",26.4 µM
"Cc1cc(/C=N/NC(=O)c2ccccc2O)c(O)c(C(C)(C)C)c1 [4e, 2-Hydroxy-N’-[(E)-(3-tert-butyl-2-hydroxy-5-methylphenyl)methylidene]benzohydrazide]",Ki,[1]; uncompetitive,150 µM
"COc1ccc(C(=O)N/N=C/c2cc(C)cc(C(C)(C)C)c2O)cc1 [4d, 4-Methoxy-N’-[(E)-(3-tert-butyl-2-hydroxy-5-methylphenyl)methylidene]benzohydrazide]",Ki,[1]; competitive,25.8 µM
"O=C(N/N=C/c1cccc(-c2ccccc2)c1O)c1cccc(O)c1 [4n, 3-Hydroxy-N’-[(E)-(2-hydroxy-3-phenyl-phenyl)methylidene]benzohydrazide]",Ki,[1]; [3],139 µM
"CC(C)(C)c1cc(/C=N/NC(=O)c2cc(O)cc(O)c2)c(O)c(C(C)(C)C)c1 [4i, 3,5-Dihydroxy-N’-[(E)-(3,5-di-tert-butyl-2-hydroxyphenyl)methylidene]benzohydrazide]",Ki,[1]; competitive,55.6 µM
"Cc1cc(/C=N/NC(=O)Cc2ccc(O)cc2)c(O)c(C(C)(C)C)c1 [3b, 2-(4-Hydroxyphenyl)-N’-[(E)-(3-tert-butyl-2-hydroxy-5-methylphenyl)methylidene]acetohydrazide]",Ki,"[1]; uncompetitive, text b18 prints 49.1",49.2 µM
"COc1cccc(C(=O)N/N=C/c2cc(C)cc(C(C)(C)C)c2O)c1 [4c, 3-Methoxy-N’-[(E)-(3-tert-butyl-2-hydroxy-5-methylphenyl)methylidene]benzohydrazide]",Ki,[1]; non-competitive,17.4 µM
"CC(C)(C)c1cc(/C=N/NC(=O)c2cccc(O)c2)c(O)c(C(C)(C)C)c1 [4h, 3-Hydroxy-N’-[(E)-(3,5-di-tert-butyl-2-hydroxyphenyl)methylidene]benzohydrazide]",Ki,[1]; competitive,18.9 µM
